Patent publication US7772260B2, “Imidazo[2,1-b]-1,3,4-thiadiazole sulfonamides” (Aegera Therapeutics Inc., priority 2001, dated 2010)
Entries after “also recorded” stand apart in the source; their conditions may differ.

Tests used:
cortical neurons = experiment: Neuroprotection of cortical neurons in the presence of beta-amyloid; format: cell-based, Sprague Dawley rats; details: 10 uM compound, 10 uM 25-35 amyloid beta peptide, 48 hour
Experimental: Primary neuronal/glial cortical cultures were established from postnatal day 1 Sprague Dawley rats. Cerbral cortices were isolated and dissociated with 0.25% trypsin for 20 minutes at 37 degrees. The tissue was then triturated in PBS containing 0.1% bovine serum albumin and 0.2 mg/ml DNAse. Cells were plated in poly D-lysine coated 96 well plates at a density of 1e6 cells per mL. Cultures were maintained at 37 degrees in 5% C02/95% air for 2 weeks in Neurobasal (Gibco) supplemented with B27, glutamine, and penicillin/streptomycin. 5ng/mL AraC was added after 48 hours. After 2 weeks cells were exposed to 10 uM 25-35 amyloid beta peptide with and without 10 uM compound 76. After 2 days of treatment apoptotic cells were detected with Cy3-conjugated annexin V (Sigma).

CA II = CA II (Homo sapiens, UniProt P00918); experiment: CA II inhibition; format: biochemical; details: read-out: IC(50), CA II inhibition
Experimental: CA II inhabition was measured using the protocol described by Pocker, Y.'Stone, J. Biochemistry 1967, 6, 668.

SCG neurons [1] = experiment: cells; format: cell-based, Sprague Dawley rats; details: Rattus norvegicus, Neuron; Taxol™ (50 ng/mL), viability 48 hours later, MTS; read-out: IC(50), protection of SCG neurons from Taxol killing
sciatic nerve = experiment: Sciatic nerve crush injury model; format: in vivo, Sprague Dawley rats; details: for functional recovery after sciatic nerve crush: 1 and 10 mg/kg
Excerpt: The sciatic nerve crush model is a representative model of axonal repair and regeneration. The sciatic nerve is physically crushed with forceps at the mid-thigh; only the right leg is injured, the left leg serving as a control. The axons die from the crush point to their point of innervation. Functional loss of the axons is rapidly observed as the animals drag their right leg and the toes of the right leg no longer spread. Recovery is observed in approximately 28 days as the animals regain use of their right leg. More quantitative measurements of recovery include toe spread measurements between the digits 1 and 5 and digits 2 and 4, gait analysis and electrical conductivity from the toes to the injury site (see Example 161). Male Sprague Dawley rats were anaesthetized (halothane and buprenorphine) and the right hind leg was blunt dissected to expose the sciatic nerve at mid-thigh. The nerve was crushed twice for a total of 30 seconds using No.7 Dumont jeweller's forceps. The incision is sutured and the animals are allowed to recover for 28 days. Functional recovery was measured by gait, nerve conductance and toe spread measurements between digits 1 and 5 and digits 2 and 4.

SCG neurons [2] = experiment: Protection of SCG neurons from anti-NGF killing; format: cell-based, Sprague Dawley rats; details: Rattus norvegicus, Neuron; anti-NGF antibody, serum and NGF free 48 hours, Alamar Blue; +/−1 uM; read-out: IC(50), rescue from anti-NGF killing of SCG neurons
Experimental: Neurotrophins are critical to the growth, development, and survival of small fiber neurons of the PNS. SCG neurons are neurons of the PNS that undergo apoptosis upon NGF withdrawal. In a typical experiment SCG neurons are cultured in the presence of NGF, which induces survival and neurite out-growth. After 5 days the NGF is removed by either the addition of anti-NGF polyclonal antibody (Sigma) or by repeated washings (4 times) with NGF free media, resulting in the apoptosis of up to 90% of the neurons after 48 hours, as measured by MTS staining.
After 4 days the cells were treated with anti-NGF antibody (Sigma). At this time compound was added and the cells were maintained serum and NGF free for 48 hours, at which time viability was assessed using Alamar Blue (Medicorp) staining.

Sprague Dawley rats = format: in vivo; details: rat, in vivo, 9 mg/kg
Experimental: Taxol™ commonly causes dose dependent peripheral neuropathies during cancer treatment. […] All of the Taxol™ treated animals developed peripheral neuropathies, characterized by ‘tip toe walking’. The extent of this neuropathy was analyzed by quantifying the refracted light captured by a video camera as the animals walked over a glass plate.
Adult Sprague Dawley rats were treated with Taxol™ (IP, 9 mg/kg in Cremophor EL and ethanol) twice weekly for 3 weeks (J. Neuro-Oncology (1999) 41: 107-116). Compound was administered I hour prior to Taxol™ treatment (IP, 1, 5 and 10 mg/kg in hydroxypropyl-β-cyclodextrin). Taxol™ treated control animals were treated with saline solution at the same time of Compound treated animals. Non-treated control animals were treated with saline solution as above. Weight gain was measured every second day, starting at Day 1. Gait analysis was measured by quantifying the refracted light captured by a video camera as the animals walked over a glass plate, 2 days after the final Taxol™ treatment (Physiology and Behavior (1994), 55(4): 723-726; Med. Sci. Res. (1988) 16: 901-902). […] H/M wave recovery was analyzed using standard procedures 2 days after the final Taxol™ treatment (Muscle Nerve (1998) 21: 1405-1413; Annals of Neurology (1998) 43 (1): 46-55).
Male Spraugue Dawley rats were treated with 50% HPDC vehicle (veh/veh), compound I dissolved in 50% HPDC at 1, 5, or 10 mg/kg (veh/1, veh/5, veh/10, respectively), or Taxol™ (9 mg/kg)+compound 1 dissolved in 50% HPDC at 1, 5, and 10 mg/kg (Tax/1, Tax/5, Tax/10) according to the dosing regime described in Example 160. Weight measurements were made ever other day.
Two days after the completion of drug treatments animal walking gait was analyzed according to a) total imprint area, and b) total number of contact points.
FIG. 6 illustrates the effect of Compound 1 on H-reflex amplitude, a measurement of H/M wave disturbance induced by Taxol™. Two days after the completion of drug treatments, the dorsal root ganglia and attached nerves were dissected bilaterally from L4 and L5 and their H/M wave conductance measured.

SCG neurons [3] = experiment: In vitro protection of SCG neurons from vincristine killing; format: cell-based, Sprague Dawley rats; details: vincristine 100 ng/mL
Excerpt: Similarly, vincristine and vinblastine are commonly used anti-tumour agents whose mode of action involve tubulin binding.

Row | SMILES | IC50 (CA II) [nM] | IC50 (SCG neurons [1]) [nM] | IC50 (SCG neurons [2]) [µM] | also measured
1 | COc1cccc(-c2ccc(-c3cn4nc(S(N)(=O)=O)sc4n3)cc2)c1 [Compound 76, 6-(4-(3-methoxyphenyl)phenyl)imidazo[2,1-b]-1,3,4-thiadiazole-2-sulfonamide] | 526 | 2000 | 5 | annexin V positive (apoptotic) cells (cortical neurons): prevents the occurrence of annex in V stained cells; also recorded: prevented the appearance of annexinV positive cells; functional recovery after sciatic nerve crush (sciatic nerve): improved recovery; recovery in toe spread area (inner toe spread) (sciatic nerve; versus vehicle control): induced increased recovery
2 | NS(=O)(=O)c1nn2cc(-c3ccc(-c4cccc(C(F)(F)F)c4)cc3)nc2s1 [Compound 81, 6-(4-(3-trifluoromethylphenyl)phenyl)imidazo[2,1-b]-1,3,4-thiadiazole-2-sulfonamide] | 1580 | 3000 | 5 | 
3 | NS(=O)(=O)c1nn2cc(-c3ccc(-c4ccc(C(F)(F)F)cc4)cc3)nc2s1 [Compound 82, 6-(4-(4-trifluoromethylphenyl)phenyl)imidazo[2,1-b]-1,3,4-thiadiazole-2-sulfonamide] | 5430 | 2000 | 25 | 
4 | NS(=O)(=O)c1nn2cc(-c3ccc(Oc4ccccc4)cc3)nc2s1 [Compound 87, 6-(4-phenoxyphenyl)imidazo[2,1-b]-1,3,4-thiadiazole-2-sulfonamide] | 128 | 5000 | 10 | 
5 | NS(=O)(=O)c1nn2cc(-c3ccc(Oc4ccc([N+](=O)[O-])cc4)cc3)nc2s1 [Compound 99, 6-(4-(4-nitrophenoxy)phenyl)imidazo[2,1-b]-1,3,4-thiadiazole-2-sulfonamide] | 914 | 2000 | 7 | 
6 | NS(=O)(=O)c1nn2cc(-c3cc4ccccc4o3)nc2s1 [Compound 111, 6-(Benzo[b]furan-2-yl)imidazo[2,1-b]-1,3,4-thiadiazole-2-sulfonamide] | 53200 | 2000 | 7 | functional recovery after sciatic nerve crush (sciatic nerve): improved recovery
7 | CC(=O)O[C@H]1C(=O)[C@@]2(C)[C@H]([C@H](OC(=O)c3ccccc3)[C@]3(O)C[C@H](OC(=O)[C@H](O)[C@@H](NC(=O)c4ccccc4)c4ccccc4)C(C)=C1C3(C)C)[C@]1(OC(C)=O)CO[C@@H]1C[C@@H]2O [Taxol™, reference compound] |  |  |  | reduction in foot-pad contact as compared to control animals (Sprague Dawley rats): 46%; weight gain over a thirteen day period (Sprague Dawley rats): no weight gain
8 | CC[C@]1(O)C[C@H]2CN(CCc3c([nH]c4ccccc34)[C@@](C(=O)OC)(c3cc4c(cc3OC)N(C=O)[C@H]3[C@@](O)(C(=O)OC)[C@H](OC(C)=O)[C@]5(CC)C=CCN6CC[C@]43[C@@H]65)C2)C1 [vincristine, reference compound] |  |  |  | apoptosis of cultured SCG neurons (SCG neurons [3]): ≥ 80%
